According to patent US9309242B2, “Substituted pyrido[2,3-b]pyrazines as FGFR kinase inhibitors” (priority 2011, dated 2016):
pIC50: −log10 of the molar value. Structures can show the parent of a compound that is named as a salt. Where two headings read alike, the source gives them in different places.

Experiments:
FGFR3 (h) = FGFR3 (h) (Homo sapiens, UniProt P22607); assay: FGFR3 (enzymatic assay), TR-FRET; assay type: biochemical; details: read-out: FGFR 3 pIC50 (converted)
Excerpt: Time-Resolved Fluorescence Resonance Energy Transfer (TR-FRET) signal (ex340 nm.

FGFR4 (h) = FGFR4 (h) (Homo sapiens, UniProt P22455); assay: FGFR4 (enzymatic assay), TR-FRET; assay type: biochemical; details: FGFR 4 pIC50, enzymatic assay
FGFR2 (h) = FGFR2 (h) (Homo sapiens, UniProt P21802); assay: FGFR2 (enzymatic assay), TR-FRET; assay type: biochemical; details: enzymatic assay, read-out: FGFR 2 pIC50 (converted)
Procedure, shortened: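 hFGFR2 150 ng/ml; Btn-Flt3 500 nM; ATP 0.4 μM; 50 mM HEPES pH 7.5, 6 mM MnCl2, 1 mM DTT, 0.1 mM Na3VO4, 0.01% Triton-X-100; 1% DMSO final.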

[1] = target: Ba/F3-FGFR4-transfected cells (Homo sapiens, UniProt P22455); assay: Ba/F3-FGFR4 cellular proliferation assay, Alamar Blue; assay type: cell-based
Procedure, shortened: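 Fluorescence read-out (ex. 540 nm, em. 590 nm) of resazurin-based Alamar Blue after 4 h, following 24 h compound exposure of Ba/F3-FGFR4-transfected cells (20000/well) at 37° C, 5% CO2.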

[2] = test system: Ba/F3-KDR-transfected cells; assay: Ba/F3-KDR (plus IL3) cellular proliferation assay, counterscreen with 10 ng/ml murine IL3; assay type: cell-based; details: plus IL3 (10 ng/ml murine IL3, counterscreen); read-out: BAF3-KDR (PLUS IL3) pIC50 (converted)
Procedure, shortened: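 Read-out: resazurin-based Alamar Blue fluorescence (ex. 540, em. 590 nm) after 4 h. Before that, cells were incubated with compound for 24 h at 37° C. The counterscreen ran identically but with IL3 supplemented.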

KDR (h) = KDR (h) (Homo sapiens, UniProt P35968); assay: KDR (VEGFR2) (enzymatic assay), TR-FRET; assay type: biochemical; details: read-out: VEGFR 2 (KDR) pIC50 (converted)
Procedure, shortened: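 3 μM ATP, 500 nM Btn-Flt3 substrate, 150 ng/ml kinase; HEPES pH 7.5 with MnCl2, DTT, vanadate, Triton; 1% DMSO. 120 min RT. Stop: EDTA + Eu-anti-P-Tyr + SA-XL-665, 60 min RT. Readout TR-FRET ex340/em620, 655 nm, RFU.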

FGFR1 (h) = FGFR1 (h) (Homo sapiens, UniProt P11362); assay: FGFR1 (enzymatic assay), TR-FRET; assay type: biochemical; details: read-out: FGFR 1 pIC50 (converted)
[3] = target: T1, Ba/F3-FGFR1-transfected cells (Homo sapiens, UniProt P11362); assay: Ba/F3-FGFR1 (minus IL3) cellular proliferation assay, Alamar Blue; assay type: cell-based
T1 construct: BAF3-FGFR1 (MIN IL3) pIC50; other: minus IL3
Procedure, shortened: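 Ba/F3 cells transfected with FGFR1 (20000 cells/well) were plated onto compound in phenol red-free RPMI-1640 with 10% FBS, 2 mM L-glutamine and gentamycin, then kept 24 h at 37 °C, 5% CO2. Alamar Blue (resazurin) was added for 4 h and fluorescence read at ex 540/em 590 nm.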

[4] = target: T2, Ba/F3-FGFR3-transfected cells (Homo sapiens, UniProt P22607); assay: Ba/F3-FGFR3 (minus IL3) cellular proliferation assay, Alamar Blue; assay type: cell-based
T2 construct: BAF3-FGFR3 (MIN IL3) pIC50; other: minus IL3
Procedure, shortened: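 Ba/F3 cells transfected with FGFR3 were seeded at 20000 cells/well in phenol red-free RPMI-1640 with 10% FBS over compound in DMSO and kept 24 hours at 37° C, 5% CO2. Alamar Blue (resazurin) was then added for 4 hours and fluorescence read at ex 540/em 590 nm. The counterscreen repeated this with 10 ng/ml murine IL3.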

[5] = test system: Ba/F3-FGFR1-transfected cells; assay: Ba/F3-FGFR1 (plus IL3) cellular proliferation assay, counterscreen with 10 ng/ml murine IL3; assay type: cell-based; details: plus IL3 (10 ng/ml murine IL3, counterscreen); read-out: BAF3-FGFR1 (PLUS IL3) pIC50 (converted)
Procedure, shortened: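 Proliferation read-out: resazurin-based Alamar Blue fluorescence (540/590 nm) after 4 h, following 24 h compound treatment of 20000 Ba/F3-FGFR1 cells per well in 10% FBS RPMI at 37° C. IL3 counterscreen used the same protocol plus 10 ng/ml murine IL3.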

[6] = average values if tested multiple times

Ba/F3-FGFR4-transfected cells, sequence (P22455 whole entry, change not shown): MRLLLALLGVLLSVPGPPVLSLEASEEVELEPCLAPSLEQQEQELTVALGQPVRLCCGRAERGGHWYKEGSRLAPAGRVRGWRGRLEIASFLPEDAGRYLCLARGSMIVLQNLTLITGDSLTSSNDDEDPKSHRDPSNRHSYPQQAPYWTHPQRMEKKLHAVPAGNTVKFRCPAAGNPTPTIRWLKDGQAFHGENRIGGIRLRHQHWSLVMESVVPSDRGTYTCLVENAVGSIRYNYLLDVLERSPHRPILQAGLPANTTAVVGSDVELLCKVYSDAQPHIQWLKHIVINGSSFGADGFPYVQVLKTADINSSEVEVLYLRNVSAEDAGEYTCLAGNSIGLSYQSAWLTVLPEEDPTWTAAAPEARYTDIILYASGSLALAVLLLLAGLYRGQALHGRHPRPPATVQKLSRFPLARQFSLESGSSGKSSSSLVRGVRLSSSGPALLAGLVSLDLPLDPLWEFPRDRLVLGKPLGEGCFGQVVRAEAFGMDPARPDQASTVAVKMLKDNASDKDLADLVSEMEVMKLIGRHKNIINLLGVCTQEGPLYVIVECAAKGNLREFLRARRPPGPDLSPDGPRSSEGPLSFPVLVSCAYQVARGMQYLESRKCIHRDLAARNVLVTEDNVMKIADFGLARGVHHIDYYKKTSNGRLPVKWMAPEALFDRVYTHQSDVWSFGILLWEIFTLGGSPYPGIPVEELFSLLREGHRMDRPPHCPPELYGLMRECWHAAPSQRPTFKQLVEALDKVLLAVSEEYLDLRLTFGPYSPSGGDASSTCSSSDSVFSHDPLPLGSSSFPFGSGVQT
FGFR2 (h), sequence (P21802 22-821): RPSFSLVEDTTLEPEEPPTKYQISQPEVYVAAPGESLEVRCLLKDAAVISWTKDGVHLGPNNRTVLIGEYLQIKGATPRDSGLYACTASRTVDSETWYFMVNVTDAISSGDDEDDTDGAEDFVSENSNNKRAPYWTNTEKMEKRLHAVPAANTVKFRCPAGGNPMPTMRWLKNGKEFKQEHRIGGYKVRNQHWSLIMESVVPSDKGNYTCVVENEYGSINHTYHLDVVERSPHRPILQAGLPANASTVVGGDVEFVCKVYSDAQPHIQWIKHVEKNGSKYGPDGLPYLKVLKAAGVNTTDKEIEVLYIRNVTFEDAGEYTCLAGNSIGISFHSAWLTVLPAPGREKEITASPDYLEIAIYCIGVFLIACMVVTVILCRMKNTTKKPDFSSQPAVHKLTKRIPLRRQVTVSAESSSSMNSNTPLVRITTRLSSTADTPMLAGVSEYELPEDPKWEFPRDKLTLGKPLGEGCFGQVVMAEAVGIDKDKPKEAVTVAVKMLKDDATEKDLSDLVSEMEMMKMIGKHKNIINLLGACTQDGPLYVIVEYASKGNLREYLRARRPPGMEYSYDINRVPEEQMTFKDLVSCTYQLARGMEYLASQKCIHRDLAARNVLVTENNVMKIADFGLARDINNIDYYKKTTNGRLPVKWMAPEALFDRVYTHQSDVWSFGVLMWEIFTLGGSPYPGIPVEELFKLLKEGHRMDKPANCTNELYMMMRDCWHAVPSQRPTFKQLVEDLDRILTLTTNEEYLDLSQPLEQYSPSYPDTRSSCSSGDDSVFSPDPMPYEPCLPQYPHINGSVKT
FGFR3 (h), sequence (P22607 23-806): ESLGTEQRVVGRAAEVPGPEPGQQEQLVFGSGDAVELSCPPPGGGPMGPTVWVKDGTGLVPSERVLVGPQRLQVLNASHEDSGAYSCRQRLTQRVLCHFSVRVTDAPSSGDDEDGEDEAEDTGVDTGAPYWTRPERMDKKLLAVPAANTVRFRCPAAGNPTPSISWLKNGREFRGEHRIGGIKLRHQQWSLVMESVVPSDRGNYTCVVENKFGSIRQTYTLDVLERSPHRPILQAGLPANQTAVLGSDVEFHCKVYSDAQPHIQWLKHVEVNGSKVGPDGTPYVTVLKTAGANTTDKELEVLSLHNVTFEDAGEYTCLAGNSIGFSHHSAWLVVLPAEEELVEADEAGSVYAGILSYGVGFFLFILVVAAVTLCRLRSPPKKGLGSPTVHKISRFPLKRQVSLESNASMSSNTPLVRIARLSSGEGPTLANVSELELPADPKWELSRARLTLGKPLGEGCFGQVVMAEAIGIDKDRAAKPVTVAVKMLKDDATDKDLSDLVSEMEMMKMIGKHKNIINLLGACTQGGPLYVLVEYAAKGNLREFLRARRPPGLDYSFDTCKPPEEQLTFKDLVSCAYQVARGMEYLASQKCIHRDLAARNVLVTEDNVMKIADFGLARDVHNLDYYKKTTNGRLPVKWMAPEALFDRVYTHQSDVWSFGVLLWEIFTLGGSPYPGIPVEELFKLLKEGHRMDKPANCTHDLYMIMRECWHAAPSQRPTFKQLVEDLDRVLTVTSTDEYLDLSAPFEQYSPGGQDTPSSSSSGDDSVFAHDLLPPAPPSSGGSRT
FGFR4 (h), sequence (P22455 22-802): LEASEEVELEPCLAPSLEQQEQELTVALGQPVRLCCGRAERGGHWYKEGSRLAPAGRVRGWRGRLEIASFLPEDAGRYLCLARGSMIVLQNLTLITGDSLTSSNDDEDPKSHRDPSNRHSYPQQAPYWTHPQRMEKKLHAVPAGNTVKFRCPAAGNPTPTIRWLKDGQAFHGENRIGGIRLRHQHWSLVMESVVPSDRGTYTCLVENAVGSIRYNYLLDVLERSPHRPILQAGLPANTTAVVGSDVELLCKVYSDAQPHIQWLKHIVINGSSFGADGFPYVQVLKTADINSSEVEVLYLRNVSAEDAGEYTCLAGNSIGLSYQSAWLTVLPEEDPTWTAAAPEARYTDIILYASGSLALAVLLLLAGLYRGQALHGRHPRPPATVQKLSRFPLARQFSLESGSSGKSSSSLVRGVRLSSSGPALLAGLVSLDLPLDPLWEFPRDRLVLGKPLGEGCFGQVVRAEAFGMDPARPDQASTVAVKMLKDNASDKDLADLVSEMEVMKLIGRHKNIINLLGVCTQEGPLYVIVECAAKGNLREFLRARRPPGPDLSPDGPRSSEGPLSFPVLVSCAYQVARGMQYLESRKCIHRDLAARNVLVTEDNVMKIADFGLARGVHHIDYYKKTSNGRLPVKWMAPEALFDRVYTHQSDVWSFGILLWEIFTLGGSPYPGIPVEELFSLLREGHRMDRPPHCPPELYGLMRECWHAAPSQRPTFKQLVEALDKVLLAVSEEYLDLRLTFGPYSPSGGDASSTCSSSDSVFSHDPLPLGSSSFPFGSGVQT
T2 sequence (P22607 whole entry, change not shown): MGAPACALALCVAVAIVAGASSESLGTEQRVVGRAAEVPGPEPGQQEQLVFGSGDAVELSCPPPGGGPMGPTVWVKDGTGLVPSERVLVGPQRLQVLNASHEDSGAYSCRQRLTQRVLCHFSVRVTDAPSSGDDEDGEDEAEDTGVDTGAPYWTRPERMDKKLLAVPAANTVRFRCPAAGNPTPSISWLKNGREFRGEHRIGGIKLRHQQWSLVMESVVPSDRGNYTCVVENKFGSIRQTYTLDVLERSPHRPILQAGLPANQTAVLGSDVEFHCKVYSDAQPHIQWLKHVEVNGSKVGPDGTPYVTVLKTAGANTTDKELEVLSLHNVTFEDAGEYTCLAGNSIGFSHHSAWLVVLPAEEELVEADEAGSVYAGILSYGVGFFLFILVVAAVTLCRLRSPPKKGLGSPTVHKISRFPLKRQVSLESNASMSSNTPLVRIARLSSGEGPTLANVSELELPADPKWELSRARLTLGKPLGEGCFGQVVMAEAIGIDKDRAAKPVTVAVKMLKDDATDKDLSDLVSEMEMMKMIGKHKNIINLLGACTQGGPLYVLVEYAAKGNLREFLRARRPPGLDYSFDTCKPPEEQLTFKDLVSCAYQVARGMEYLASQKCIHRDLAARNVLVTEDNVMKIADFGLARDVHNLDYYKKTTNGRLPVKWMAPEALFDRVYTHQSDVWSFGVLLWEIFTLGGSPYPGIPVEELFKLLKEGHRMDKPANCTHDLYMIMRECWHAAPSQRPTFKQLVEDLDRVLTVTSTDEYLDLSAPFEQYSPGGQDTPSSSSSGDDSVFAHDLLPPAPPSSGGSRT
T1 sequence (P11362 whole entry, change not shown): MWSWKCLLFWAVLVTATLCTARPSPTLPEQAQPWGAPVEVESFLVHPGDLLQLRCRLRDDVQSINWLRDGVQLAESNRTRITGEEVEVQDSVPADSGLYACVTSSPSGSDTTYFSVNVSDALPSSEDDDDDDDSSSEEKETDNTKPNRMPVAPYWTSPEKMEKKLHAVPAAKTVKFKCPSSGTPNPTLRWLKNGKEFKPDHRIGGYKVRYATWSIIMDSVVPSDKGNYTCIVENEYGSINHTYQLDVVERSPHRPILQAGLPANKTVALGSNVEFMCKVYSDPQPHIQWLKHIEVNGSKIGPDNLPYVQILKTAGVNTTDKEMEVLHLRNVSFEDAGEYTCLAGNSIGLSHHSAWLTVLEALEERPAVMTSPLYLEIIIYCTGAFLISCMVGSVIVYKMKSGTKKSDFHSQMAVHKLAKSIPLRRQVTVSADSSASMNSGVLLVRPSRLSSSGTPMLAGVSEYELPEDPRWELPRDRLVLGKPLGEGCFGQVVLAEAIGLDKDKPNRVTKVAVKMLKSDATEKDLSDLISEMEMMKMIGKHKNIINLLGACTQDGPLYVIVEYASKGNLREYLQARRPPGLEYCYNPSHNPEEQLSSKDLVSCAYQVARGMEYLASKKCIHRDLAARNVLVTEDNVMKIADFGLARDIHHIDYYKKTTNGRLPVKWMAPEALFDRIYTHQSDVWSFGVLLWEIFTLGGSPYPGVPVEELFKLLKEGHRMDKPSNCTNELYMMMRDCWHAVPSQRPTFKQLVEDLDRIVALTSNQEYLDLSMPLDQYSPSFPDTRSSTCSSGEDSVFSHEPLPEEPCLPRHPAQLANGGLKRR

| SMILES | IC50 (FGFR3 (h); [6]) [nM] | pIC50 (FGFR4 (h); [6]) | IC50 (FGFR2 (h); [6]) [nM] | BAF3-FGFR4 pIC50 [1] | IC50 [2] [nM] | IC50 (KDR (h); [6]) [nM] | IC50 (FGFR1 (h); [6]) [nM] | BAF3-FGFR1 (MIN IL3) pIC50 [3] | BAF3-FGFR3 (MIN IL3) pIC50 [4] | IC50 [5] [nM] | IC50 (FGFR3 (h)) [nM] | pIC50 (FGFR4 (h)) | IC50 (FGFR2 (h)) [nM] | IC50 (KDR (h)) [nM] | IC50 (FGFR1 (h)) [nM] |
| --- | --- | --- | --- | --- | --- | --- | --- | --- | --- | --- | --- | --- | --- | --- | --- |
| COc1cc(OC)c(F)c(N(CCCN2CCCC2=O)c2ccc3ncc(-c4cnn(C)c4)nc3n2)c1F [Compound 56] | 2.75 | 8.64 | 2.82 | 7.41 | > 10000 | 7.76 | 0.891 | 7.53 | 7.87 | > 10000 |  |  |  |  |  |
| COc1cc(/N=c2\ccc3ncc(-c4cnn(C)c4)nc3n2CC(O)COC(C)C)c(F)c(OC)c1 (single isomer, unassigned) [Compound 77] | 1.78 | 8.52 | 3.16 | 6.46 | > 10000 | 28.8 | 2.69 | 7.37 | 7.38 | > 10000 |  |  |  |  |  |
| CNCCn1/c(=N/c2cc(OC)cc(OC)c2F)ccc2ncc(-c3cnn(C)c3)nc21 [Compound 38] | 4.9 | 7.75 | 4.57 | 5.74 | > 10000 | 74.1 | 2.45 | 6.92 | 6.27 | > 10000 |  |  |  |  |  |
| COCC(O)CN(c1cc(OC)cc(OC)c1)c1ccc2ncc(-c3cnn(C)c3)nc2n1 (centres unmarked) [Compound 7] | 1.58 | 8.20 | 3.98 | 6.53 | > 10000 | 200 | 3.16 | 7.0 | 7.1 | > 10000 |  |  |  |  |  |
| CNCCN(c1ccc2ncc(-c3cnn(C)c3)nc2n1)c1c(Cl)ccc(OC)c1Cl [Compound 83] | 105 | 6.03 | 49 | <5 | > 10000 | > 1000 | 75.9 | 5.36 | ~5.66 | > 10000 |  |  |  |  |  |
| COc1cc(OC)c(F)c(/N=c2\ccc3ncc(-c4cnn(C)c4)nc3n2CCN)c1F [Compound 68] | 1.62 | 8.70 | 1.58 | 7.14 | > 10000 | 15.8 | 0.575 | 7.86 | 7.70 | > 10000 |  |  |  |  |  |
| COc1cc(OC)c(F)c(N(Cc2c[nH]c(C)n2)c2ccc3ncc(-c4cnn(C)c4)nc3n2)c1 [Compound 137] |  |  |  | 7.23 | > 10000 |  |  | ~8.11 | 7.64 | > 10000 | 1.58 | 8.77 | 2.04 | 11.2 | 1.48 |
| COc1cc(OC)c(F)c(N(Cc2nc3c([nH]2)CCNC3)c2ccc3ncc(-c4cnn(C)c4)nc3n2)c1 [Compound 104] | 3.09 | 8.46 | 3.24 | 5.74 | > 10000 | 26.3 | 2.57 | 6.70 | ~6.01 | > 10000 |  |  |  |  |  |
| COc1cc(/N=c2\ccc3ncc(-c4cnn(C)c4)nc3n2Cc2ccnn2C)c(F)c(OC)c1 [Compound 114] | 0.724 | 9.05 | 1.62 | 7.14 | > 10000 | 4.9 | 0.933 | 7.63 | ~7.66 | > 10000 |  |  |  |  |  |
| CNCCn1/c(=N/c2c(Cl)ccc(OC)c2Cl)ccc2ncc(-c3cnn(C)c3)nc21 [Compound 84] | 363 | 5.45 | 126 | <5 | > 10000 | > 1000 | 224 | 5.15 | ~5.11 | > 10000 |  |  |  |  |  |
| COc1cc(/N=c2\ccc3ncc(-c4cnn(C)c4)nc3n2Cc2cc[nH]n2)c(F)c(OC)c1 [Compound 115] | 0.851 | 9.03 | 1.58 | ~7.59 | > 10000 | 5.89 | 0.708 | ~8.17 | 7.82 | > 10000 |  |  |  |  |  |
| COc1cc(OC)c(F)c(/N=c2\ccc3ncc(-c4cnn(C)c4)nc3n2CCCN2CCCC2=O)c1F [Compound 55] | 0.49 | 9.35 | 1.26 | 7.71 | > 10000 | 2.82 | 0.603 | 8.12 | 8.19 | 7760 |  |  |  |  |  |
| COc1cc(OC)c(F)c(N(Cc2cc[nH]n2)c2ccc3ncc(-c4cnn(C)c4)nc3n2)c1 [Compound 118] | 0.589 | 9.11 | 1.32 | ~7.56 | > 10000 | 6.46 | 0.759 | 8.00 | ~8.04 | > 10000 |  |  |  |  |  |
| COc1cc(/N=c2\ccc3ncc(-c4cnn(C)c4)nc3n2CC2COC(=O)N2)c(F)c(OC)c1 (centres unmarked) [Compound 123] |  |  |  | 6.62 | > 10000 |  |  | 7.21 | 7.16 | > 10000 | 0.741 | 8.56 | 1.26 | 21.9 | 1.35 |
| COc1cc(/N=c2\ccc3ncc(-c4cnn(C)c4)nc3n2CC2CCC(=O)N2)c(F)c(OC)c1 (centres unmarked) [Compound 45] | 1.35 | 8.40 | 1.91 | 6.59 | > 10000 | 13.5 | 1.48 | 7.14 | 7.07 | > 10000 |  |  |  |  |  |
| COc1cc(OC)cc(N(Cc2ncc[nH]2)c2ccc3ncc(-c4cnn(C)c4)nc3n2)c1 (racemic) [24-DL-tartrate salt] | 0.741 | 8.95 | 1.32 | 7.62 | > 10000 | 11.7 | 0.355 | 8.47 | 8.21 | > 10000 |  |  |  |  |  |
| COc1cc(OC)c(F)c(N(CC(O)COC(C)C)c2ccc3ncc(-c4cnn(C)c4)nc3n2)c1 (single isomer, unassigned) [Compound 75] | 1.95 | 8.65 | 2.63 | 7.33 | > 10000 | 23.4 | 2.14 | 7.76 | 7.75 | > 10000 |  |  |  |  |  |
